Key:
MT4 [1] = experiment: Cytotoxicity in MT-4 cells using cytopathicity assay.; type: functional, Homo sapiens
MT4 [2] = experiment: Tested for its anti-HIV activity in MT-4 cells in the presence of 50% human serum.; type: functional, cell-based
MT4 [3] = experiment: Tested for its anti-HIV activity in MT-4 cells.; type: functional, cell-based; details: Homo sapiens
[4] = molecular target: Human immunodeficiency virus type 1 protease (Human immunodeficiency virus 1) (UniProt Q72874); experiment: Tested for its inhibition against HIV protease at a concentration of 0.5 nM.
[5] = molecular target: Human immunodeficiency virus type 1 protease (Human immunodeficiency virus 1) (UniProt Q72874); experiment: Compound was tested for its inhibition against HIV protease at a concentration of 4 nM.
[6] = Cmax value after oral dose at a dose of 10 mg/kg in rats.; type: ADME, organism-based; set-up: dose 10 mg/kg, route oral; details: rat, in vivo
[7] = Oral bioavailability in rat (dose 10 mg/kg p.o.); type: ADME, organism-based; details: in vivo
[8] = Tmax value after oral dose at a dose of 10 mg/kg in rats.; type: ADME, organism-based; set-up: dose 10 mg/kg, route oral; details: rat, in vivo
[9] = AUC value after IV dose at a dose of 5 mg/kg in rats.; type: ADME, organism-based; set-up: dose 5 mg/kg, route intravenous; details: rat, plasma
[10] = AUC value after oral dose at a dose of 10 mg/kg in rats.; type: ADME, organism-based; set-up: dose 10 mg/kg, route oral; details: rat, plasma
[11] = Half-life value after IV dose at a dose of 5 mg/kg in rats.; type: ADME, organism-based; set-up: dose 5 mg/kg, route intravenous; details: rat, in vivo

inhibition [4] [%] | inhibition [5] [%] | Cmax [6] [ng/mL] | bioavailability [7] [%] | Tmax [8] [min] | AUC [9] [ng·h/mL] | AUC [10] [ng·h/mL] | half-life [11] [min] | Compound | CCIC50 (MT4 [1]) [µM] | EC50 (MT4 [2]) [nM] | EC50 (MT4 [3]) [nM]
43 |  |  |  |  |  |  |  | O=C(N[C@@H](Cc1ccccc1)C[C@H](O)[C@H](Cc1ccccc1)NC(=O)OC1COC2OCCC12)Oc1cncs1 (stereo partly drawn) | >100 | 1200 | 502
39 |  |  |  |  |  |  |  | O=C(N[C@@H](Cc1ccccc1)[C@@H](O)C[C@H](Cc1ccccc1)NC(=O)O[C@@H]1COC2OCCC21)O[C@H]1COC2OCCC21 (stereo partly drawn) | >100 | 1920 | 891
 | 50 |  |  |  |  |  |  | O=C(N[C@@H](Cc1ccccc1)C[C@H](O)[C@H](Cc1ccccc1)NC(=O)O[C@@H]1COC2OCCC21)O[C@@H]1COC2OCCC21 (stereo partly drawn) | >100 | 4180 | 3680
73 |  |  |  |  |  |  |  | O=C(N[C@@H](Cc1ccccc1)C[C@H](O)[C@H](Cc1ccccc1)NC(=O)O[C@@H]1COC2OCCC21)O[C@H]1COC2OCCC21 (stereo partly drawn) | >100 | 197 | 107
52 |  |  |  |  |  |  |  | O=C(N[C@@H](Cc1ccccc1)[C@@H](O)C[C@H](Cc1ccccc1)NC(=O)OC1COC2OCCC12)Oc1cncs1 (stereo partly drawn) | >100 | 774 | 428
49 |  |  |  |  |  |  |  | CC(C)(C)OC(=O)N[C@@H](Cc1ccccc1)C[C@H](O)[C@H](Cc1ccccc1)NC(=O)OC1COC2OCCC12 (stereo partly drawn) | 56 | 200 | 200
45 |  |  |  |  |  |  |  | CC(C)(C)OC(=O)N[C@@H](Cc1ccccc1)C[C@H](O)[C@H](Cc1ccccc1)NC(=O)O[C@@H]1COC2OCCC21 (stereo partly drawn) | >100 | 4730 | 1040
53 |  |  |  |  |  |  |  | O=C(N[C@@H](Cc1ccccc1)C[C@H](O)[C@H](Cc1ccccc1)NC(=O)OC1COC2OCCC12)OC1COC2OCCC12 (stereo partly drawn) | >100 | 77 | 71
64 |  |  |  |  |  |  |  | O=C(N[C@@H](Cc1ccccc1)C[C@H](O)[C@H](Cc1ccccc1)NC(=O)O[C@H]1COC2OCCC21)O[C@H]1COC2OCCC21 (stereo partly drawn) | >100 | 115 | 34
53 |  | 1120 | 41.1 | 30 | 2300 | 1890 | 41.4 | O=C(N[C@@H](Cc1ccccc1)C[C@H](O)[C@H](Cc1ccccc1)NC(=O)O[C@H]1COC2OCCC21)Oc1cncs1 (stereo partly drawn) | >100 | 290 | 140
78 |  |  |  |  |  |  |  | CC(C)c1nc(CN(C)C(=O)N[C@H](C(=O)N[C@@H](Cc2ccccc2)C[C@H](O)[C@H](Cc2ccccc2)NC(=O)OCc2cncs2)C(C)C)cs1 [RITONAVIR] | 56 | 810 | 70
63 |  |  |  |  |  |  |  | CC(C)(C)OC(=O)N[C@@H](Cc1ccccc1)C[C@H](O)[C@H](Cc1ccccc1)NC(=O)O[C@H]1COC2OCCC21 (stereo partly drawn) | 69 |  | 180

Reference: ChEMBL document CHEMBL1128938, “Evaluation of furofuran as a P2 ligand for symmetry-based HIV protease inhibitors” (Bioorg Med Chem Lett, 1996)
